Five compounds from ChEMBL document CHEMBL1148263, “Solid-phase synthesis of kojic acid-tripeptides and their tyrosinase inhibitory activity, storage stability, and toxicity” (Bioorg Med Chem Lett, 2004) can be followed below.

Holding throughout (type): functional, Mus musculus
Assay [1] can be described thus: Cytotoxicity of compound against Melan-a cells determined as percent cell survival at 1 ppm.
Assay [2] in a line: Cytotoxicity of compound against Melan-a cells determined as percent cell survival at 10 ppm.
The nature of assay [3]: Cytotoxicity of compound against Melan-a cells determined as percent cell survival at 100 ppm.

Regarding `O=C(N[C@@H](Cc1ccccc1)C(=O)N[C@@H](Cc1c[nH]c2ccccc12)C(=O)N[C@@H](Cc1ccc(O)cc1)C(=O)O)OCc1cc(=O)c(O)co1`, the results for the Cell survival in assay [1], in assay [2] and in assay [3] were 125.51%, 128.73% and 128.08%, respectively.

As to `O=c1cc(CO)occ1O` [KOJIC ACID], the Cell survival in assay [1] is given as 91.75%; in assay [2], 92.36%; in assay [3], 86.92%.

As to `O=C(N[C@@H](Cc1ccccc1)C(=O)N[C@@H](Cc1ccccc1)C(=O)N[C@@H](Cc1ccc(O)cc1)C(=O)O)OCc1cc(=O)c(O)co1`, the Cell survival turned out to be 91.62% in assay [1], 94.66% in assay [2] and 104.36% in assay [3].

For `NCCCC[C@H](NC(=O)OCc1cc(=O)c(O)co1)C(=O)N[C@@H](CCC(=O)O)C(=O)N[C@@H](Cc1ccc(O)cc1)C(=O)O`, the Cell survival was determined as 98.38% in assay [1], 98.78% in assay [2] and 100.81% in assay [3].

As for `O=C(N[C@@H](Cc1ccccc1)C(=O)N[C@@H](Cc1ccc(O)cc1)C(=O)N[C@@H](Cc1ccc(O)cc1)C(=O)O)OCc1cc(=O)c(O)co1`, the Cell survival came out at 124.4% in assay [1], 128.62% in assay [2] and 124.4% in assay [3].
